How the values were obtained:
[1] = system: 5′UTR length-dependent translation in HEK293T cells; assay: Firefly luciferase reporters with long (354 nt) and short (111 nt) 5′UTR; type: cell-based, human; conditions: 5 μM, 16 h
Description: FIGS. 5A-D: 5′UTR length-dependent translational control by the eIF1-eIF4G1. […] The asterisks denote a statistically significant difference. **p<0.01, ****p<0.0001. (5B) A scheme of the firefly reporter genes that are driven by long (354 nt) and short (111 nt) 5′ UTR length, is shown on the top. HEK293T cells were transfected with these reporter genes. After 4 h, transfected cells were treated with DMSO, i14G1-10 (5 μM), or i14G1-12 (5 μM) for 16 h and analyzed for firefly luciferase activities. The graph presents the normalized luminescence activity of the long 5′UTR and the short 5′UTR reporters in the indicated treatments. The data are shown as mean±SEM, n=6. The asterisks denote statistically significant difference compared to DMSO, according to Student's t-tests (one-tailed, paired). *p<0.05; **p<0.01. (5C-D) HEK293T cells were treated with DMSO, i14G1-10, and i14G1-12 for 3 h, lysed, and subjected to sucrose gradient sedimentation and fractionation. Fractions were pooled according to polysome profile as free (grey), light (blue), and heavy (yellow) polysomal fractions. cDNA was prepared from each fraction pool and real-time PCR was performed for the indicated TISU genes (5C) or histone genes (5D). The data are shown as mean±SEM, n=3. The asterisks denote statistically significant difference compared to DMSO, according to Student's t-tests (one-tailed, paired), *p<0.05; **p<0.01.
Since both eIF1 and eIF4G1 are important for scanning, the relationship between the translational effects of the inhibitors and the 5′UTR length was examined. […] To investigate further the link between the effect of the drug and 5′UTR length, we used two firefly luciferase reporters we used that differ only in their 5′UTR length: a short 5′UTR with 111 nucleotides and a long 5′UTR with 354 nucleotides. […] These findings confirm the inhibitory effect of these compounds on the scanning promoting activity of the eIF1-eIF4G1 complex.

eIF1 = target: T1, eIF1 (Homo sapiens, UniProt P41567); assay: Intrinsic fluorescence of His-eIF1; type: binding; conditions: 0-256 μM, 5 minutes
T1 construct: made in house; host or cells: E. coli BL21
T1 sequence (P41567 whole entry): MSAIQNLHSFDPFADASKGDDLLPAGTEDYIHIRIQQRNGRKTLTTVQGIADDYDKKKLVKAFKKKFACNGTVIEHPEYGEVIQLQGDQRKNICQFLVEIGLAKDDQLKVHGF
Source text: FIGS. 1A-G: Identification and initial characterization of eIF1-eIF4G1 inhibitors using a high-throughput drug screen (HTS). (1A) A flowchart describing the steps of the recombinant eIF1-eIF4G1 split-RL HTS. (1B) Selection of drugs that inhibit leaky scanning. HEK293T cells were transfected with a short 5′UTR bearing GFP reporter gene described on the top, treated with the indicated HTS hits, and then analyzed by western blot with GFP antibody. US and DS denote upstream and downstream AUG initiation sites, respectively. (1C) A graph showing the change in the ratio of the upstream and downstream AUG following treatment with the indicated drugs. (1D) The chemical structure of the eIF1-eIF4G1 inhibitors, i14G1-10 and i14G1-12. (1E) His-tagged eIF4G1 and His-tagged eIF1 were expressed in BL21 bacteria and purified using nickel NTA beads. Purified His-tagged eIF4G1 and His-tagged eIF1 were incubated with the indicated doses of either i14G1-10 (0-256 μM) or i14G1-12 (0-256 μM) for 5 minutes, followed by fluorescence measurement. […] IC50 was calculated using Graphpad prism 9. […]
Intrinsic fluorescence of His-eIF1 and His-eIF4G1. […] After 5 minutes, fluorescence (280/350) was measured on Cytation 5 multi-mode reader (Biotek). The fluorescence intensity values corresponding to respective concentration in both i14G1-10 and i14G1-12 treatments were plotted and IC50 was calculated using GraphPad Prism 9.0. […]

| Compound | luciferase reporter expression driven by the longer 5′UTR (354 nucleotides) [1] | luciferase reporter expression driven by the shorter 5′UTR (111 nucleotides) [1] | intrinsic fluorescence of eIF1 (eIF1) | IC50 (eIF1; excitation 274 nm, emission 304 nm, read-out: IC-50, decrease of eIF1 intrinsic fluorescence) |
| --- | --- | --- | --- | --- |
| O=C(/C=C/Sc1ccc(C(F)(F)F)cn1)c1ccccc1 [i14G1-10] | significantly decreased | did not affect | almost unchanged |  |
| Cn1ccnc1S/C(=C/C=C(C#N)C#N)c1ccc(Cl)cc1 [i14G1-12] | significantly decreased | did not affect |  | 54 µM |
